Results as given in ChEMBL document CHEMBL2413072, “Synthesis and in vitro anticancer studies of novel C-2 arylidene congeners of lantadenes” (2013).
The source made the active and inactive calls. No cut-off for these calls is given here.

How the values were obtained:
Type in all cases: functional
Hs-578T = test: Growth inhibition of human Hs 578T cells assessed as growth inhibition at 10 uM by sulforhodamine B assay
SNB-19 [1] = test: Growth inhibition of human SNB19 cells assessed as cell growth at 10^-8 M by sulforhodamine B assay; conditions: read-out: Activity
[2] = Growth inhibition of human HCC2998 cells assessed as cell growth at 10^-8 M by sulforhodamine B assay; conditions: HCC 2998, read-out: Activity
NCI-H23 [3] = test: Growth inhibition of human NCI-H23 cells assessed as cell growth at 10^-8 M by sulforhodamine B assay; conditions: read-out: Activity
SR = test: Growth inhibition of human SR cells assessed as cell growth at 10^-8 M by sulforhodamine B assay; conditions: read-out: Activity
CCRF-CEM = test: Growth inhibition of human CCRF-CEM cells assessed as cell growth at 10^-8 M by sulforhodamine B assay; conditions: read-out: Activity
T47D [4] = test: Growth inhibition of human T47D cells by sulforhodamine B assay
A498 = test: Growth inhibition of human A498 cells by sulforhodamine B assay
UACC-257 = test: Growth inhibition of human UACC257 cells by sulforhodamine B assay
MDA-MB-435 = test: Growth inhibition of human MDA-MB-435 cells by sulforhodamine B assay
SK-OV-3 = test: Growth inhibition of human SKOV3 cells assessed as cell growth at 10^-4 M by sulforhodamine B assay; conditions: read-out: Activity
OVCAR-8 = test: Growth inhibition of human OVCAR8 cells assessed as cell growth at 10^-4 M by sulforhodamine B assay; conditions: read-out: Activity
SK-MEL-5 = test: Growth inhibition of human SK-MEL-5 cells assessed as cell growth at 10^-4 M by sulforhodamine B assay; conditions: read-out: Activity
M14 [5] = test: Growth inhibition of human M14 cells assessed as cell growth at 10^-4 M by sulforhodamine B assay; conditions: read-out: Activity
LOX IMVI = test: Growth inhibition of human LOXIMVI cells assessed as cell growth at 10^-4 M by sulforhodamine B assay; conditions: read-out: Activity
SNB-75 = test: Growth inhibition of human SNB75 cells assessed as cell growth at 10^-4 M by sulforhodamine B assay; conditions: read-out: Activity
SNB-19 [6] = test: Growth inhibition of human SNB19 cells assessed as cell growth at 10^-4 M by sulforhodamine B assay; conditions: read-out: Activity
COLO 205 = test: Growth inhibition of human COLO205 cells assessed as cell growth at 10^-4 M by sulforhodamine B assay; conditions: read-out: Activity
HOP-92 = test: Growth inhibition of human HOP92 cells assessed as cell growth at 10^-4 M by sulforhodamine B assay; conditions: read-out: Activity
RPMI-8226 = test: Growth inhibition of human RPMI8226 cells assessed as cell growth at 10^-4 M by sulforhodamine B assay; conditions: read-out: Activity
[7] = Growth inhibition of human Hs 578T cells assessed as cell growth at 10^-6 M by sulforhodamine B assay; conditions: read-out: Activity
RXF 393 [8] = test: Growth inhibition of human RXF393 cells assessed as cell growth at 10^-6 M by sulforhodamine B assay; conditions: read-out: Activity
OVCAR-5 [9] = test: Growth inhibition of human OVCAR5 cells assessed as cell growth at 10^-6 M by sulforhodamine B assay; conditions: read-out: Activity
M14 [10] = test: Growth inhibition of human M14 cells assessed as cell growth at 10^-6 M by sulforhodamine B assay; conditions: read-out: Activity
NCI-H23 [11] = test: Growth inhibition of human NCI-H23 cells assessed as cell growth at 10^-6 M by sulforhodamine B assay; conditions: read-out: Activity
K562 = test: Growth inhibition of human K562 cells assessed as cell growth at 10^-6 M by sulforhodamine B assay; conditions: read-out: Activity
DU-145 = test: Growth inhibition of human DU145 cells assessed as cell growth at 10^-7 M by sulforhodamine B assay; conditions: read-out: Activity
SN12C = test: Growth inhibition of human SN12C cells assessed as cell growth at 10^-7 M by sulforhodamine B assay; conditions: read-out: Activity
RXF 393 [12] = test: Growth inhibition of human RXF393 cells assessed as cell growth at 10^-7 M by sulforhodamine B assay; conditions: read-out: Activity
SNB-19 [13] = test: Growth inhibition of human SNB19 cells assessed as cell growth at 10^-7 M by sulforhodamine B assay; conditions: read-out: Activity
SF-539 = test: Growth inhibition of human SF539 cells assessed as cell growth at 10^-7 M by sulforhodamine B assay; conditions: read-out: Activity
SF-295 = test: Growth inhibition of human SF295 cells assessed as cell growth at 10^-7 M by sulforhodamine B assay; conditions: read-out: Activity
HCT-116 = test: Growth inhibition of human HCT116 cells assessed as cell growth at 10^-7 M by sulforhodamine B assay; conditions: read-out: Activity
T47D [14] = test: Growth inhibition of human T47D cells assessed as cell growth at 10^-8 M by sulforhodamine B assay; conditions: read-out: Activity
PC-3 = test: Growth inhibition of human PC3 cells assessed as cell growth at 10^-8 M by sulforhodamine B assay; conditions: read-out: Activity
OVCAR-5 [15] = test: Growth inhibition of human OVCAR5 cells assessed as cell growth at 10^-8 M by sulforhodamine B assay; conditions: read-out: Activity
[16] = read-out: LC50 (the source's name)
[17] = read-out: pLC50 (the source's name) (converted)

C/C=C(/C)C(=O)O[C@@H]1CC(C)(C)C[C@H]2C3=CC[C@@H]4[C@@]5(C)CC[C@H](O)C(C)(C)[C@@H]5CC[C@@]4(C)[C@]3(C)CC[C@@]12C(=O)O [Reduced Lantadene A]
growth inhibition (GI) (Hs-578T): Active
growth at 0.01 µM (SNB-19 [1]): 90%
growth at 0.01 µM [2]: 99%
growth at 0.01 µM (NCI-H23 [3]): 101%
growth at 0.01 µM (SR): 83%
growth at 0.01 µM (CCRF-CEM): 98%
GI50 (T47D [4]; read-out: GI50): 11.8 µM
CC50 (T47D [4]; [16]): > 100 µM
TGI (T47D [4]; read-out: TGI): 41.1 µM
GI50 (T47D [4]; read-out: pGI50 (converted)): 11.7 µM
CC50 (T47D [4]; [17]): > 100 µM
TGI (T47D [4]; read-out: pTGI (converted)): 40.7 µM
GI50 (A498; read-out: GI50): 1.54 µM
CC50 (A498; [16]): 7.38 µM
TGI (A498; read-out: TGI): 3.37 µM
GI50 (A498; read-out: pGI50 (converted)): 1.55 µM
CC50 (A498; [17]): 7.41 µM
TGI (A498; read-out: pTGI (converted)): 3.39 µM
GI50 (UACC-257; read-out: GI50): 2.13 µM
CC50 (UACC-257; [16]): 19.3 µM
TGI (UACC-257; read-out: TGI): 4.93 µM
GI50 (UACC-257; read-out: pGI50 (converted)): 2.14 µM
CC50 (UACC-257; [17]): 19.5 µM
TGI (UACC-257; read-out: pTGI (converted)): 4.9 µM
GI50 (MDA-MB-435; read-out: GI50): 2.21 µM
CC50 (MDA-MB-435; [16]): > 100 µM
TGI (MDA-MB-435; read-out: TGI): 5.9 µM
GI50 (MDA-MB-435; read-out: pGI50 (converted)): 2.19 µM
CC50 (MDA-MB-435; [17]): > 100 µM
TGI (MDA-MB-435; read-out: pTGI (converted)): 5.89 µM
growth at 100 µM (SK-OV-3): 4%
growth at 100 µM (OVCAR-8): -39%
growth at 100 µM (SK-MEL-5): -63%
growth at 100 µM (M14 [5]): -48%
growth at 100 µM (LOX IMVI): -62%
growth at 100 µM (SNB-75): -47%
growth at 100 µM (SNB-19 [6]): -40%
growth at 100 µM (COLO 205): 3%
growth at 100 µM (HOP-92): -73%
growth at 100 µM (RPMI-8226): -15%
growth at 1 µM [7]: 92%
growth at 1 µM (RXF 393 [8]): 87%
growth at 1 µM (OVCAR-5 [9]): 113%
growth at 1 µM (M14 [10]): 89%
growth at 1 µM (NCI-H23 [11]): 98%
growth at 1 µM (K562): 85%
growth at 0.1 µM (DU-145): 115%
growth at 0.1 µM (SN12C): 92%
growth at 0.1 µM (RXF 393 [12]): 95%
growth at 0.1 µM (SNB-19 [13]): 90%
growth at 0.1 µM (SF-539): 103%
growth at 0.1 µM (SF-295): 90%
growth at 0.1 µM (HCT-116): 95%
growth at 0.01 µM (T47D [14]): 101%
growth at 0.01 µM (PC-3): 92%
growth at 0.01 µM (OVCAR-5 [15]): 100%
